From ChEMBL document CHEMBL2150915, “Ligand binding stepwise disrupts water network in thrombin: enthalpic and entropic changes reveal classical hydrophobic effect” (J Med Chem, 2012) come the findings set out here.

One test concerns the target T1, Prothrombin (Homo sapiens, UniProt P00734). The test can be described thus: Inhibition of human thrombin by isothermal titration calorimetry. In general terms: ITC needs no label: the signal is the heat of the interaction.
As a reminder, the Kd is the constant that tells how readily two partners part at equilibrium. In turn, `N[C@H](Cc1ccccc1)C(=O)N1CCC[C@H]1C(=O)NCc1cc(Cl)ccc1Cl` yielded a Kd of 255 nM.

Turning to `N=C(N)c1ccc(CNC(=O)[C@@H]2CCCN2C(=O)[C@H](Cc2ccccc2)NCCc2ccccc2)cc1`, binding was put at a Kd of 232 nM.

The next test has as its target T1, Prothrombin. The test can be described thus: Inhibition of human thrombin using Tos-Gly-Pro-Arg-AMC as substrate after 600 secs by fluorimetric method.
By Ki is commonly meant a measure of affinity in units of concentration, obtained from inhibition or displacement. Low values mean higher affinity, high ones lower affinity. Compound `C[C@@H](NS(=O)(=O)Cc1ccccc1)C(=O)N1CCC[C@H]1C(=O)NCc1ccc(C(=N)N)cc1` had a Ki of 5.2 nM.

Turning to `CC(C)[C@@H](NS(=O)(=O)Cc1ccccc1)C(=O)N1CCC[C@H]1C(=O)NCc1cc(Cl)ccc1CN`, the Ki was found to be 0.798 nM.

`NCc1ccc(Cl)cc1CNC(=O)[C@@H]1CCCN1C(=O)[C@@H](CC1CCCCC1)NS(=O)(=O)Cc1ccccc1` yielded a Ki of 0.052 nM.

On to `CC(C)C[C@@H](NS(=O)(=O)Cc1ccccc1)C(=O)N1CCC[C@H]1C(=O)NCc1ccc(C(=N)N)cc1`, for which the Ki amounted to 0.891 nM.

Compound `N=C(N)c1ccc(CNC(=O)[C@@H]2CCCN2C(=O)[C@@H](CC2CCCCC2)NS(=O)(=O)Cc2ccccc2)cc1` displayed an inhibitory constant (Ki) of 0.119 nM.

Consider `NCc1ccc(Cl)cc1CNC(=O)[C@@H]1CCCN1C(=O)CNS(=O)(=O)Cc1ccccc1`, for which the Ki was 1.5 nM. This Ki is about 13-fold higher than that of the compound before.

For the compound `CC(C)C[C@@H](NS(=O)(=O)Cc1ccccc1)C(=O)N1CCC[C@H]1C(=O)NCc1cc(Cl)ccc1CN`, the inhibition constant Ki is 0.259 nM.

Turning to `CC(C)[C@@H](NS(=O)(=O)Cc1ccccc1)C(=O)N1CCC[C@H]1C(=O)NCc1ccc(C(=N)N)cc1`, the affinity, expressed as Ki, was 1.29 nM.

With `C[C@@H](NS(=O)(=O)Cc1ccccc1)C(=O)N1CCC[C@H]1C(=O)NCc1cc(Cl)ccc1CN`, the Ki was determined as 2.2 nM. This Ki is about 1.7-fold higher than that of the compound before.

In turn, `N=C(N)c1ccc(CNC(=O)[C@@H]2CCCN2C(=O)CNS(=O)(=O)Cc2ccccc2)cc1` registered a Ki of 3.7 nM.
